Key:
PA-IIL lectin = target: T1, PA-IIL lectin (Pseudomonas aeruginosa, UniProt Q9HYN5); experiment: Assay for PA-IIL antagonist activity (plate-coated PA-IIL, fucose-PAA-biotin/streptavidin-HRP competition); type: binding; conditions: for inhibition of the PA-IIL lectin: FIG. 6
T1 construct: Dr. Wimmerova, Masaryk University, Brno, Czech Republic
Method: Wells of a microtiter plate (plate 1) are coated with PA-IIL (Dr. Wimmerova, Masaryk University, Brno, Czech Republic) by incubation for 2 hrs at 37° C. The wells are then blocked for 2 hrs by the addition of 1% bovine serum albumin (BSA) diluted in TBS-Ca (50 mM TrisHCl, 150 mM NaCl, 2 mM CaCl2 pH 7.4) mixed 1:1 v/v with Stabilcoat (Surmodics, Eden Prairie, Minn.). In a second low-binding round-bottom microtiter plate (plate 2), test antagonists are serial diluted in 1% BSA in TBS-Ca/Stabilcoat (60 μl/well). […] Plate 1 is then washed with TBS-Ca and 100 μl/well are transferred from plate 2 to plate 1. After incubation at room temperature for 2 hrs, plate 1 is washed and 100 μl of TMB reagent (KPL Labs, Gaithersburg, Md.) is added to each well. After incubation for 5 minutes at room temperature, the reaction is stopped by adding 100 μl/well of 1M H3PO4 and the absorbance of light at 450 nm is determined by a microtiter plate reader.

[1] = target: PA-IIL binding to human epithelial cells (Pseudomonas aeruginosa, UniProt Q9HYN5); experiment: Inhibition of PA-IIL lectin binding to human buccal epithelial cells (flow cytometry); type: cell-based; conditions: FIG. 9A-9F, biotinylated PA-IIL, fluorescein-labeled streptavidin, FACS
Method: FIG. 9A-9F illustrates the inhibition of PA-IIL binding to human epithelial cells. Human buccal epithelial cells are incubated with biotinylated PA-IIL lectin followed by detection of bound lectin with fluorescein-labeled streptavidin. Fluorescently labeled cells are quantified by fluorescent-activated cell sorting (FIG. 9B).
Obtain sample of buccal cells by scraping inside of cheek and collecting in 2 mis PBS. Spin cells at 400 g for 7 minutes to generate cell pellet. Discard supernatant. Resuspend in cold TBS-Ca (50 mM TrisHCl, 150 mM NaCl, 2 mM CaCl2 pH 7.4) to cell concentration of 10^6 cells/ml. Aliquot 0.1 ml to each tube. Add biotinylated PA-I or PA-II to tubes (5μ/well of 1.0 mg/ml lectin). Add inhibitors to tubes (5 μl at desired concentration). Incubate on ice for 30 minutes. Wash cells once by adding 400 μl of cold TBS-Ca to each tube and spinning at 400 g for 7 minutes. Discard supernatant. Resuspend cells in 100 μl of cold TBS-Ca. Add streptavidin-FITC (2 μl/tube of 1 mg/ml, KPL Labs, Gaithersburg, Md.). Incubate 30 minutes on ice. Wash cells once by adding 400 μl of cold TBS-Ca to each tube and spinning at 400 g for 7 minutes. Discard supernatant. Resuspend cells in 500 μl of cold TBS-Ca. Analyze in flow cytometer.

PA-IL lectin = target: T2, PA-IL lectin (Pseudomonas aeruginosa, UniProt Q05097); experiment: Assay for PA-IL antagonist activity (plate-coated PA-IL, α-galactose-PAA-biotin/streptavidin-HRP competition); type: binding; conditions: for inhibition of PA-IL lectin: FIG. 5
T2 construct: purchased Sigma-Aldrich, St. Louis, Mo
Method: Wells of a microtiter plate (plate 1) are coated with PA-IL (Sigma-Aldrich, St. Louis, Mo.) by incubation for 2 hrs at 37° C. The wells are then blocked for 2 hrs by the addition of 1% bovine serum albumin (BSA) diluted in TBS-Ca (50 mM TrisHCl, 150 mM NaCl, 2 mM CaCl2 pH 7.4) mixed 1:1 v/v with Stabilcoat (Surmodics, Eden Prairie, Minn.). In a second low-binding round-bottom microtiter plate (plate 2), test antagonists are serial diluted in 1% BSA in TBS-Ca/Stabilcoat (60 μl/well). Preformed conjugates of α-galactose-PAA-biotin (GlycoTech Corp, Gaithersburg, Md.) mixed with streptavidin-HRP (KPL Labs, Gaithersburg, Md.) are added to each well of plate 2 (60 μl/well of 2 μg/ml). Plate 1 is then washed with TBS-Ca and 100 μl/well are transferred from plate 2 to plate 1. After incubation at room temperature for 2 hrs, plate 1 is washed and 100 μl of TMB reagent (KPL Labs, Gaithersburg, Md.) is added to each well. After incubation for 5 minutes at room temperature, the reaction is stopped by adding 100 μl/well of 1M H3PO4 and the absorbance of light at 450 nm is determined by a microtiter plate reader.

T2 sequence (Q05097 whole entry): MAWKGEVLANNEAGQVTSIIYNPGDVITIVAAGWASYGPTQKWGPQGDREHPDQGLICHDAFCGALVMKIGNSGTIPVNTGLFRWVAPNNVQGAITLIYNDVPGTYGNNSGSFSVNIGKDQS
T1 sequence (Q9HYN5 entry or part of it): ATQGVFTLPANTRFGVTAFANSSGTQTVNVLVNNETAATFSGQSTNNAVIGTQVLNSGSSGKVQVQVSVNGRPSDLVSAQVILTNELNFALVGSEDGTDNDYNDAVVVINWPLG
Sequence of PA-IIL binding to human epithelial cells (Q9HYN5 entry or part of it): as above

Row | SMILES | inhibition of the PA-IIL lectin (PA-IIL lectin; qualitative) | inhibition of PA-IIL in IC50 determination (PA-IIL lectin; FIG. 8, qualitative) | inhibition of PA-IIL binding to human epithelial cells [1] | inhibition of PA-IL lectin (PA-IL lectin; qualitative) | inhibition of PA-IIL relative to fucose (from IC50 determination) (PA-IIL lectin; FIG. 8, times better than fucose) [times] | inhibition of PA-IL relative to galactose (from IC50 determination) (PA-IL lectin; FIG. 7, times better than galactose) [times] | inhibition of PA-IL in IC50 determination (PA-IL lectin; FIG. 7, qualitative)
1 | O=C[C@H](O)[C@@H](O)[C@@H](O)[C@H](O)CO [galactose] | not | inactive | no effect | inhibited |  |  | 
2 | CC1OC(OC2C(CO)OCCC2OC2OC(CO)C(O)C(OC3OC(CO)C(O)C(O)C3O)C2O)C(O)C(O)C1O (stereo not drawn) [Glycomimetic 1] | inhibited |  | inhibits binding | inhibited | 4 to 5 | 4 to 5 | 
3 | OC[C@H]1O[C@H](OCC2O[C@@H](O)[C@H](O)[C@@H](O)[C@@H]2O)[C@H](O)[C@@H](O)[C@H]1O (stereo partly drawn) [Melibiose, Melibiose (Galα1-6Gal)] |  |  |  | inhibited |  |  | 
4 | C[C@H](O)[C@@H](O)[C@@H](O)[C@H](O)C=O [fucose] |  |  |  | not |  |  | inactive

Reference: patent publication US8258290B2, “Glycomimetic inhibitors of the PA-IL lectin, PA-IIL lectin or both the lectins from pseudomonas” (priority 2005, dated 2012)
